Results reported in paper PMC6704710, “Preclinical evaluation of 3D185, a novel potent inhibitor of FGFR1/2/3 and CSF-1R, in FGFR-dependent and macrophage-dominant cancer models” (Journal of Experimental & Clinical Cancer Research : CR, 2019).

Tests used:
Test in all cases: Eurofins kinase panel
Type in all cases: biochemical
[1] = target: T1, mTOR(h) (Homo sapiens, UniProt P42345); settings: read-out: Inhibition rate (%)
T1 construct: purchased Eurofins (KinaseProfiler)

[2] = target: T2, TAF1L(h) (Homo sapiens, UniProt Q8IZX4); settings: read-out: Inhibition rate (%)
T2 construct: purchased Eurofins (KinaseProfiler)

[3] = target: T3, CDK3/cyclinE(h) (Homo sapiens, UniProt Q00526); settings: read-out: Inhibition rate (%)
T3 construct: purchased Eurofins (KinaseProfiler)

[4] = target: T4, CaMKK2(h) (Homo sapiens, UniProt Q96RR4); settings: read-out: Inhibition rate (%)
T4 construct: purchased Eurofins (KinaseProfiler)

[5] = target: T5, DCAMKL2(h) (Homo sapiens, UniProt Q8N568); settings: read-out: Inhibition rate (%)
T5 construct: purchased Eurofins (KinaseProfiler)
T5 sequence (Q8N568 1-766): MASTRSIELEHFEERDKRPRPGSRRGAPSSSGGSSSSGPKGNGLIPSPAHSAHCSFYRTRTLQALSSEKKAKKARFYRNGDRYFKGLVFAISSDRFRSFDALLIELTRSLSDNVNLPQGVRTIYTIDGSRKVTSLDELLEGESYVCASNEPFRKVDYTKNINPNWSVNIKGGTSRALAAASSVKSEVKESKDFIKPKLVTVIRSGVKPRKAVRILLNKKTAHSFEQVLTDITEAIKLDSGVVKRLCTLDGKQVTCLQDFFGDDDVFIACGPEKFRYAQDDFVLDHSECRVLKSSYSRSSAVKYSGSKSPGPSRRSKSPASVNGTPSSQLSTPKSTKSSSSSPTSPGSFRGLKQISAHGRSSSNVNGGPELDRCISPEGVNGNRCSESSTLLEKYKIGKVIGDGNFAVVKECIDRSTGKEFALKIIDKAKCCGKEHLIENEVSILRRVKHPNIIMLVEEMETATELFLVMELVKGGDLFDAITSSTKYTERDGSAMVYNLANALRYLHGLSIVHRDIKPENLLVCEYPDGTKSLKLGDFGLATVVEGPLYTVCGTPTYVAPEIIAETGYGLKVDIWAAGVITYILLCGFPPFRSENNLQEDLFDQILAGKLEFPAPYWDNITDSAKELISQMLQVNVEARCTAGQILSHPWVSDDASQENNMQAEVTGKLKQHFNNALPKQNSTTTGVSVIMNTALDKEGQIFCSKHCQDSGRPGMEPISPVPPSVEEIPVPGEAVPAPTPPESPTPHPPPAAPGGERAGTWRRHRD

[6] = target: T6, Wee1(h) (Homo sapiens, UniProt P30291); settings: read-out: Inhibition rate (%)
T6 construct: purchased Eurofins (KinaseProfiler)

[7] = target: T7, PI3 Kinase (p110α(E545K)/p85α)(h) (Homo sapiens, UniProt P42336, E545K); settings: read-out: Inhibition rate (%)
T7 construct: purchased Eurofins (KinaseProfiler)

[8] = target: T8, SBK1(h) (Homo sapiens, UniProt Q52WX2); settings: read-out: Inhibition rate (%)
T8 construct: purchased Eurofins (KinaseProfiler)

[9] = target: Fms(h) (Homo sapiens, UniProt P07333)
[10] = target: T9, PAK4(h) (Homo sapiens, UniProt O96013); settings: read-out: Inhibition rate (%)
T9 construct: purchased Eurofins (KinaseProfiler)

[11] = target: T10, IR(h), activated (Homo sapiens, UniProt P06213); settings: read-out: Inhibition rate (%)
T10 construct: purchased Eurofins (KinaseProfiler)

[12] = target: T11, DYRK3(h) (Homo sapiens, UniProt O43781); settings: read-out: Inhibition rate (%)
T11 construct: purchased Eurofins (KinaseProfiler)
T11 sequence (O43781 1-588): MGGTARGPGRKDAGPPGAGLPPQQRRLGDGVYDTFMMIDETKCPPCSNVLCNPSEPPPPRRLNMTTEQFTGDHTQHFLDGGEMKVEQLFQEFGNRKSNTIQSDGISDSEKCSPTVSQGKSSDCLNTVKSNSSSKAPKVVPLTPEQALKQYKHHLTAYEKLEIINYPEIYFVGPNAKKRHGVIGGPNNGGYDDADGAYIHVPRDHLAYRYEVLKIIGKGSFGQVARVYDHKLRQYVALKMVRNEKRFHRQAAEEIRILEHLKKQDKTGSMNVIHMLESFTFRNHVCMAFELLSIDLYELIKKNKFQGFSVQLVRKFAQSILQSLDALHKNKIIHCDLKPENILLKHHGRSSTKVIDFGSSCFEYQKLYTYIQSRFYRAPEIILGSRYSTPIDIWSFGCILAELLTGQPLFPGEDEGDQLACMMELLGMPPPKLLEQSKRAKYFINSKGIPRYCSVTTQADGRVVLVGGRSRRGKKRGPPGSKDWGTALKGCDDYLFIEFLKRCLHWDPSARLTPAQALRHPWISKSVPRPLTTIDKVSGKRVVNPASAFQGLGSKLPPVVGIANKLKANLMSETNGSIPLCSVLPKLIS

T2 sequence (Q8IZX4 whole entry): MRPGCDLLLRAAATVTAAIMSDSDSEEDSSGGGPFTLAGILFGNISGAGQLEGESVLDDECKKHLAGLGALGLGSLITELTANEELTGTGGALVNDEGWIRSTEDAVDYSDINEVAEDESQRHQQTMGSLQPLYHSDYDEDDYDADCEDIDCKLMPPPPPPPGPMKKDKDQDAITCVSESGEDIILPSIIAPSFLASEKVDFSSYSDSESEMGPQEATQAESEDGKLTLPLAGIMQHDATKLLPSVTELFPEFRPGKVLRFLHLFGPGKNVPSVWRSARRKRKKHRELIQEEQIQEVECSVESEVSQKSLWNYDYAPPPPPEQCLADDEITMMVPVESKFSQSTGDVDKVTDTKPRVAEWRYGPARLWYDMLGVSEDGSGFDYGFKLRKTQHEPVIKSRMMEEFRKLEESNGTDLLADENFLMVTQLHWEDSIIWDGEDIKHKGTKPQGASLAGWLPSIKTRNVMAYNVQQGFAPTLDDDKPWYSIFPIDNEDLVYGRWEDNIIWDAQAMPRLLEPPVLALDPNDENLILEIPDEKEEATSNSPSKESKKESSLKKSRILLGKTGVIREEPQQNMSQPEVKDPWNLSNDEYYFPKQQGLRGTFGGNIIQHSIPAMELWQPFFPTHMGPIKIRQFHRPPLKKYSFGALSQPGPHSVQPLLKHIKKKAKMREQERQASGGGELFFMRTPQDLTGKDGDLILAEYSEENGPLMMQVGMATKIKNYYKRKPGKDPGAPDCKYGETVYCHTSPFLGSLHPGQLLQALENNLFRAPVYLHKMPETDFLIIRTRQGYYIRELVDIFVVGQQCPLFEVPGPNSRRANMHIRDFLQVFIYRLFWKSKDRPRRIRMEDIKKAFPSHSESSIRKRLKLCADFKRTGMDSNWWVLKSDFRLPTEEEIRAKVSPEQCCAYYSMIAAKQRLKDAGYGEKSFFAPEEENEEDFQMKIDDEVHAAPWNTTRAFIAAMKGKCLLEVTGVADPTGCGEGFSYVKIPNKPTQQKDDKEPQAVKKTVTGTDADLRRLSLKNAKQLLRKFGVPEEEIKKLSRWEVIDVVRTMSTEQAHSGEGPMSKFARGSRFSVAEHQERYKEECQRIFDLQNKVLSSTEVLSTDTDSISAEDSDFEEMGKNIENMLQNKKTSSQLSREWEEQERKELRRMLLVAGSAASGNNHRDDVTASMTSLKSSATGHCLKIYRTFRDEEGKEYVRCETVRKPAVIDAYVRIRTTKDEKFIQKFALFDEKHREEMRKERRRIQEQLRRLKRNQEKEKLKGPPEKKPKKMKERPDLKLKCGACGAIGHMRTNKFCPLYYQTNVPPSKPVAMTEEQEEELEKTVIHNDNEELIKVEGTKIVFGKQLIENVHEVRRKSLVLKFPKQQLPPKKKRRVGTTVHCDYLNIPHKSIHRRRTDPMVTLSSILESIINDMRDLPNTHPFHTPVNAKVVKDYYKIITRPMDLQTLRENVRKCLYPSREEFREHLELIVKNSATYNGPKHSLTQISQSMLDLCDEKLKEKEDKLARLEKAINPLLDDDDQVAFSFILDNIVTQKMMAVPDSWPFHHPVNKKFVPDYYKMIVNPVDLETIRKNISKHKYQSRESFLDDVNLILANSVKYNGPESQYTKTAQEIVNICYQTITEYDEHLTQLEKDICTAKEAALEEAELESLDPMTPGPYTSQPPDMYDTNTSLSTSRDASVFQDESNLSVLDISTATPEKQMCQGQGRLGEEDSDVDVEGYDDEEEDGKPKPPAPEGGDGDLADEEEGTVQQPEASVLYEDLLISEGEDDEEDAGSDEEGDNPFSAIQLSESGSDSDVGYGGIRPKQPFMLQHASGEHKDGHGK
T9 sequence (O96013 whole entry): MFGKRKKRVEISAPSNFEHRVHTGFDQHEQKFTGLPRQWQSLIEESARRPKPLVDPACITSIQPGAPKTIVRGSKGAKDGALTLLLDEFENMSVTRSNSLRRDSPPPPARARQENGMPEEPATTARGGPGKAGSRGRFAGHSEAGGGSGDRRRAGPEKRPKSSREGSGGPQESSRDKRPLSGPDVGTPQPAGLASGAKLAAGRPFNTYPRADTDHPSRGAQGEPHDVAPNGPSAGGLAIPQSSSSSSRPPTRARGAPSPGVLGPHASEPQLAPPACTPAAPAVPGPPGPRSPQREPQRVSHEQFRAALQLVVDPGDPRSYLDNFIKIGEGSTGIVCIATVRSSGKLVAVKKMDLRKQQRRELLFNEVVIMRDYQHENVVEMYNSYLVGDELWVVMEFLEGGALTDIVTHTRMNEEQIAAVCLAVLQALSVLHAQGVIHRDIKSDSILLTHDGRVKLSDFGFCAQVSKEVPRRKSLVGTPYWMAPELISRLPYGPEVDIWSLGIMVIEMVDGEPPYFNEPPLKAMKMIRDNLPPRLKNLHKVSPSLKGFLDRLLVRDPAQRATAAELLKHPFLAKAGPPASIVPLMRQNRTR
T4 sequence (Q96RR4 whole entry): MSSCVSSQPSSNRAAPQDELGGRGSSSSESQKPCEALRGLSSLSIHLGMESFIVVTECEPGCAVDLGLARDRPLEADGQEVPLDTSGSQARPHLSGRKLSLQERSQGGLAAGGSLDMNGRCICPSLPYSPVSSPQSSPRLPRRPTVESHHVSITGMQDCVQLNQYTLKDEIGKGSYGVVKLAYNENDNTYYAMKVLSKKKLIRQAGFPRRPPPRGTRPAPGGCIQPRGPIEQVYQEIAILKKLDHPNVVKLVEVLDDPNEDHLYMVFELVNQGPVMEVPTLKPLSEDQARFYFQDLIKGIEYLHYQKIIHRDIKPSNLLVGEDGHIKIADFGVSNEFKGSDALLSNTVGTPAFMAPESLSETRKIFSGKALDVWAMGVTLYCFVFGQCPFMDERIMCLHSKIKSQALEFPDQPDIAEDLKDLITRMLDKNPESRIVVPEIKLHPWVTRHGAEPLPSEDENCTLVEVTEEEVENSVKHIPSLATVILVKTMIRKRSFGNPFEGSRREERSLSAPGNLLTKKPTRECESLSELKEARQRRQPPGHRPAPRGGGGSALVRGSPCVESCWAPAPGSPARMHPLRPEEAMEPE
T7 sequence (P42336 whole entry E545K): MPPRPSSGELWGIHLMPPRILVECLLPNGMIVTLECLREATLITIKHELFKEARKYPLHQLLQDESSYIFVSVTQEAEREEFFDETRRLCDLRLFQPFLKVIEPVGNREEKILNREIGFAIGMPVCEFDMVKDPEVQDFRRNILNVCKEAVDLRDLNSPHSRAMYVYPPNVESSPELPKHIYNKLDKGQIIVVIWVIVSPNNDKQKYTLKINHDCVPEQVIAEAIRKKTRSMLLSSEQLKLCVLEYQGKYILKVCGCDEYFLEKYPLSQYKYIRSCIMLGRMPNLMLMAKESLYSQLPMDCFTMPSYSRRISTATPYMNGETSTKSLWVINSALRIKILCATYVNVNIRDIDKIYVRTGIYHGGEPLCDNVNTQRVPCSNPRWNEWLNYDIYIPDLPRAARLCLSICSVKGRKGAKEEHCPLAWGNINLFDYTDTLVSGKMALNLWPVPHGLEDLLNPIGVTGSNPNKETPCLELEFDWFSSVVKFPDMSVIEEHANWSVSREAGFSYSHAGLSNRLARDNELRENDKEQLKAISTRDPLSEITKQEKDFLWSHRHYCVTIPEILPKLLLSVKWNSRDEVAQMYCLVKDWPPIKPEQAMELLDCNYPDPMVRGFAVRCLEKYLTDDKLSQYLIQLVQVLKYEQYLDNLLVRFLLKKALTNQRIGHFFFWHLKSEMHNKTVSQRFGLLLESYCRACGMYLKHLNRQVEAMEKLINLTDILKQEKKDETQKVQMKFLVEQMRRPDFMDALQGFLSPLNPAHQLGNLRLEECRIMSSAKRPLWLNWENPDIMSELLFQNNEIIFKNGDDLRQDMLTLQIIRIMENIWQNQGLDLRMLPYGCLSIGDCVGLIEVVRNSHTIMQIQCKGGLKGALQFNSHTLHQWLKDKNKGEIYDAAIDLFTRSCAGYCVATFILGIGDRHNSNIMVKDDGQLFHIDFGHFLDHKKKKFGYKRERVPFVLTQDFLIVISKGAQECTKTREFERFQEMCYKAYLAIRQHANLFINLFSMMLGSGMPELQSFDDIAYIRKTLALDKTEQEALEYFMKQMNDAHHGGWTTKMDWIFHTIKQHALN
T7 sequence (P27986 whole entry partner): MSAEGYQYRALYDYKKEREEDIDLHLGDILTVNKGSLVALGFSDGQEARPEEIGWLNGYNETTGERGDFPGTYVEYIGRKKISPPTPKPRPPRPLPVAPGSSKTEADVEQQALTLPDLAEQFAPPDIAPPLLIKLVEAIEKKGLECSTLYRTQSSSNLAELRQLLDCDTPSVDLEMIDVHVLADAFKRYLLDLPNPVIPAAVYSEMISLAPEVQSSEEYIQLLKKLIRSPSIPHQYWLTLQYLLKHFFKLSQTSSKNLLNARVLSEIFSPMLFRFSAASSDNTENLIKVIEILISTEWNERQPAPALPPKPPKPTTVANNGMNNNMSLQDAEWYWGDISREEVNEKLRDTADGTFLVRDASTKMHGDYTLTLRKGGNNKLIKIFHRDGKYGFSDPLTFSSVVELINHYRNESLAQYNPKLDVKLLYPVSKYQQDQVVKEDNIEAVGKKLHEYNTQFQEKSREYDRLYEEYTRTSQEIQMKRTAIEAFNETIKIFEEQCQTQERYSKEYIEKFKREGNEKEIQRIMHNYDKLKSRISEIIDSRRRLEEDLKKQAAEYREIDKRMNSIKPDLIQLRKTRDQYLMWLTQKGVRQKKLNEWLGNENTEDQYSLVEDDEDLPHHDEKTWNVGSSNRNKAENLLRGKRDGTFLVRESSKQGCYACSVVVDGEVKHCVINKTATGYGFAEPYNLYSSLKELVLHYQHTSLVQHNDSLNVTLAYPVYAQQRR

COc1cc(OC)c(Cl)c(-c2ccc3c(NC(=O)c4ccc(N5CCNC(C)(C)C5)cc4)n[nH]c3n2)c1Cl [3D185] gave an inhibition at 0.01 µM ([1]; 10 nM) of -2%, an inhibition at 0.1 µM ([1]; 100 nM) of -2% and an inhibition at 1 µM ([1]; 1000 nM) of 4%. The inhibition at 0.01 µM ([2]; 10 nM) was -4%, the inhibition at 0.1 µM ([2]; 100 nM) was -9% and the inhibition at 1 µM ([2]; 1000 nM) was -9%. It also gave an inhibition at 0.01 µM ([3]; 10 nM) of 1%, an inhibition at 0.1 µM ([3]; 100 nM) of -11% and an inhibition at 1 µM ([3]; 1000 nM) of -19%. The inhibition at 0.01 µM ([4]; 10 nM) was -4%, the inhibition at 0.1 µM ([4]; 100 nM) was -22% and the inhibition at 1 µM ([4]; 1000 nM) was 4%. For the same molecule, the inhibition at 0.01 µM ([5]; 10 nM) was 8%, the inhibition at 0.1 µM ([5]; 100 nM) was 18% and the inhibition at 1 µM ([5]; 1000 nM) was 28%. The inhibition at 0.01 µM ([6]; 10 nM) was -5%, the inhibition at 0.1 µM ([6]; 100 nM) was -16% and the inhibition at 1 µM ([6]; 1000 nM) was 6%. The inhibition at 0.01 µM ([7]; 10 nM) was -2%, the inhibition at 0.1 µM ([7]; 100 nM) was -2% and the inhibition at 1 µM ([7]; 1000 nM) was 2%. For the same molecule, the inhibition at 0.01 µM ([8]; 10 nM) was -13%, the inhibition at 0.1 µM ([8]; 100 nM) was -3% and the inhibition at 1 µM ([8]; 1000 nM) was -10%. For the same molecule, the IC50 ([9]; CSF-1R, estimated from 372-kinase panel) was < 10 nM, the inhibition at 0.01 µM ([9]; read-out: Inhibition rate (%)) was 75% and the inhibition at 0.1 µM ([9]; read-out: Inhibition rate (%)) was 93%. It also gave an inhibition at 1 µM ([9]; read-out: Inhibition rate (%)) of 96%, an inhibition at 0.01 µM ([10]; 10 nM) of -8% and an inhibition at 0.1 µM ([10]; 100 nM) of 0%. The inhibition at 1 µM ([10]; 1000 nM) was -2%, the inhibition at 0.01 µM ([11]; 10 nM) was 9% and the inhibition at 0.1 µM ([11]; 100 nM) was 42%. The inhibition at 1 µM ([11]; 1000 nM) was 85%, the inhibition at 0.01 µM ([12]; 10 nM) was -24% and the inhibition at 0.1 µM ([12]; 100 nM) was -31%. It also gave an inhibition at 1 µM ([12]; 1000 nM) of -27%.
